Reference: ChEMBL document CHEMBL6114967, “Design and synthesis of novel sulfur-substituted triptolide with the ability to induce autophagy through inhibition of SRSF1 expression” (Eur J Med Chem, 2025)
Activity calls are given as the source filed them. The rule behind the calls is not given here.

Legend:
B16-F10 = assay: Antiproliferative activity against mouse B16-F10 cells assessed as inhibition of cell proliferation incubated for 72 hrs by MTT assay; assay type: functional, cell-based; settings: B16-F10, 72 h
HCT-116 = assay: Antiproliferative activity against human HCT-116 cells assessed as inhibition of cell proliferation incubated for 72 hrs by MTT assay; assay type: functional, cell-based; settings: HCT-116, 72 h
BGC-823 = assay: Antiproliferative activity against human BGC-823 cells assessed as inhibition of cell proliferation incubated for 72 hrs by MTT assay; assay type: functional, cell-based; settings: BGC-823, 72 h
U-251 = assay: Antiproliferative activity against human U-251 cells assessed as inhibition of cell proliferation incubated for 72 hrs by MTT assay; assay type: functional, cell-based; settings: U-251, 72 h
SGC-7901 = assay: Antiproliferative activity against human SGC-7901 cells assessed as inhibition of cell proliferation incubated for 72 hrs by MTT assay; assay type: functional, cell-based; settings: SGC-7901, 72 h
A549 = assay: Antiproliferative activity against human A549 cells assessed as inhibition of cell proliferation incubated for 72 hrs by MTT assay; assay type: functional, cell-based; settings: A549, 72 h
AGS [1] = assay: Antiproliferative activity against human AGS cells assessed as inhibition of cell proliferation incubated for 72 hrs by MTT assay; assay type: functional, cell-based
HepG2 = assay: Antiproliferative activity against human HepG2 cells assessed as inhibition of cell proliferation incubated for 72 hrs by MTT assay; assay type: functional, cell-based; settings: HepG2, 72 h
MCF7 = assay: Antiproliferative activity against human MCF7 cells assessed as inhibition of cell proliferation incubated for 72 hrs by MTT assay; assay type: functional, cell-based; settings: MCF7, 72 h
HGC-27 [2] = assay: Antiproliferative activity against human HGC-27 cells assessed as inhibition of cell proliferation incubated for 72 hrs by MTT assay; assay type: functional, cell-based; settings: HGC-27, 72 h
HGC-27 [3] = assay: Antitumor activity against human HGC-27 cells xenografted in male BALB/c nude mouse assessed as tumor growth inhibition at 0.5 mg/kg, ip administered every day for 15 days relative to control; assay type: functional; settings: HGC-27, 360 h, time 15 day, read-out: TGI
[4] = Selectivity index, ratio of IC50 for antiproliferative activity against human LO2 cells to IC50 for antiproliferative activity against human HGC-27 cells; assay type: toxicity, cell-based; settings: LO2 cells and HGC-27 cells, read-out: Ratio IC50
[5] = Acute toxicity in male ICR mouse assessed as appearance of empty cytoplasm at 2 mg/kg, ip measured after 7 days by H and E staining based light microscopic analysis; assay type: organism-based; settings: in vivo, 168 h, time 7 day
HGC-27 [6] = assay: Induction of apoptosis in human HGC-27 cells assessed as viable cells at 0.1 uM incubated for 48 hrs by annexin V-FITC and PI staining based flow cytometry analysis (reference value: 91.8%); assay type: functional; settings: read-out: Activity
HGC-27 [7] = assay: Induction of autophagy in human HGC-27 cells assessed as increase in LC3 II/LC3 I ratio in tumor tissue at 25 to 100 mg/kg, ip administered daily; assay type: functional, organism-based; settings: dose 25-100 mg/kg
[8] = Acute toxicity in male ICR mouse assessed as appearance of unclear cell boundaries at 2 mg/kg, ip measured after 7 days by H and E staining based light microscopic analysis; assay type: organism-based; settings: in vivo, 168 h, time 7 day
[9] = Antiproliferative activity against human LO2 cells assessed as inhibition of cell proliferation incubated for 72 hrs by MTT assay; assay type: toxicity, cell-based, L02
[10] = Toxicity in male ICR mouse assessed as animal death at 2 mg/kg, ip measured after 4 days; assay type: organism-based; settings: in vivo, 96 h, time 4 day
HGC-27 [11] = assay: Induction of apoptosis in human HGC-27 cells assessed as late apoptotic cells at 0.1 uM incubated for 48 hrs by annexin V-FITC and PI staining based flow cytometry analysis (reference value: 5.02%); assay type: functional
[12] = Acute toxicity in male ICR mouse assessed as enlarged hepatocyte volume at 2 mg/kg, ip measured after 7 days by H and E staining based light microscopic analysis; assay type: organism-based; settings: in vivo, 168 h, time 7 day
AGS [13] = assay: Induction of apoptosis in human AGS cells assessed as late apoptotic cells at 0.1 uM incubated for 48 hrs by annexin V-FITC and PI staining based flow cytometry analysis (reference value: 3.15%); assay type: functional
[14] = Selectivity index, ratio of IC50 for antiproliferative activity against human LO2 cells to IC50 for antiproliferative activity against human AGS cells; assay type: cell-based; settings: LO2 cells and AGS cells, read-out: Ratio IC50
AGS [15] = assay: Induction of apoptosis in human AGS cells assessed as early apoptotic cells at 0.1 uM incubated for 48 hrs by annexin V-FITC and PI staining based flow cytometry analysis (reference value: 4.44%); assay type: functional
[16] = Acute toxicity in male ICR mouse assessed as abnormal hepatocyte morphology at 2 mg/kg, ip measured after 7 days by H and E staining based light microscopic analysis; assay type: organism-based; settings: in vivo, 168 h, time 7 day
[17] = Acute toxicity in male ICR mouse assessed as appearance of bright cytoplasm at 2 mg/kg, ip measured after 7 days by H and E staining based light microscopic analysis; assay type: organism-based; settings: in vivo, 168 h, time 7 day
AGS [18] = assay: Induction of apoptosis in human AGS cells assessed as viable cells at 0.1 uM incubated for 48 hrs by annexin V-FITC and PI staining based flow cytometry analysis (reference value: 92.0%); assay type: functional; settings: read-out: Activity
[19] = Toxicity in male ICR mouse assessed as body weight loss at 2 mg/kg, ip measured after 4 days; assay type: organism-based; settings: in vivo, 96 h, time 4 day
AGS [20] = assay: Induction of apoptosis in human AGS cells assessed as necrotic cells at 0.1 uM incubated for 48 hrs by annexin V-FITC and PI staining based flow cytometry analysis (reference value: 0.44%); assay type: functional
HGC-27 [21] = assay: Induction of apoptosis in human HGC-27 cells assessed as early apoptotic cells at 0.1 uM incubated for 48 hrs by annexin V-FITC and PI staining based flow cytometry analysis (reference value: 3.13%); assay type: functional
HGC-27 [22] = assay: Induction of apoptosis in human HGC-27 cells assessed as necrotic cells at 0.1 uM incubated for 48 hrs by annexin V-FITC and PI staining based flow cytometry analysis (reference value: 0.062%); assay type: functional

| SMILES | IC50 (B16-F10) [µM] | IC50 (HCT-116) [µM] | IC50 (BGC-823) [µM] | IC50 (U-251) [µM] | IC50 (SGC-7901) [µM] | IC50 (A549) [µM] | IC50 (AGS [1]) [µM] | IC50 (HepG2) [µM] | IC50 (MCF7) [µM] | IC50 (HGC-27 [2]) [µM] | selectivity ratio [4] | IC50 at 72 h [9] [µM] | selectivity ratio [14] | also measured |
| --- | --- | --- | --- | --- | --- | --- | --- | --- | --- | --- | --- | --- | --- | --- |
| CC(C)[C@]12O[C@H]1[C@@H]1O[C@@]13[C@@]1(C)CCC4=C([C@H](O)OC4=S)[C@@H]1C[C@@H]1O[C@@]13C2=O | > 10 | 8.53 | > 10 | > 10 | > 10 | > 10 | > 10 | > 10 | > 10 | > 10 | – | – | – | – |
| CC(C)[C@]12O[C@H]1[C@@H]1O[C@]13[C@]1(O[C@H]1C[C@H]1C4=C(CC[C@@]13C)C(=O)OC4)[C@@H]2O [TRIPTOLIDE] | 0.003 | 0.01 | 0.06 | 0.02 | 0.04 | 0.04 | 0.04 | 0.06 | 0.07 | 0.02 | 1.89 | 0.04 | 1.08 | inhibition in vivo at 0.5 mg/kg (HGC-27 [3]): 97.2%; Activity [5]: Toxic; viability at 0.1 µM (HGC-27 [6]): 48.5%; Activity (HGC-27 [7]): inactive; Activity [8]: Toxic; Activity [10]: Toxic; Activity (HGC-27 [11]): 17.4%; Activity [12]: Toxic; Activity (AGS [13]): 37.9%; Activity (AGS [15]): 50.5%; Activity [16]: Toxic; Activity [17]: Toxic; viability at 0.1 µM (AGS [18]): 10%; Activity [19]: Toxic; Activity (AGS [20]): 1.65%; Activity (HGC-27 [21]): 34%; Activity (HGC-27 [22]): 0.16% |
| CC(C)[C@]12O[C@H]1[C@@H]1O[C@]13[C@]1(O[C@H]1C[C@H]1C4=C(CC[C@@]13C)C(=S)O[C@H]4O)[C@@H]2O | > 10 | 5.59 | > 10 | > 10 | > 10 | > 10 | > 10 | > 10 | > 10 | > 10 | – | – | – | – |
| CC(C)[C@]12O[C@H]1[C@@H]1O[C@]13[C@]1(O[C@H]1C[C@H]1C4=C(CC[C@@]13C)C(=S)O[C@H]4O)[C@H]2O | > 10 | > 10 | > 10 | > 10 | > 10 | > 10 | > 10 | > 10 | > 10 | > 10 | – | – | – | – |
| CC(C)[C@]12O[C@H]1[C@@H]1O[C@@]13[C@@]1(C)CCC4=C(COC4=S)[C@@H]1C[C@@H]1O[C@@]13C2=O | 1.03 | 0.52 | 1.33 | 2.43 | 1.88 | > 10 | 1.03 | 0.63 | 1.79 | 0.62 | 5.43 | 3.35 | 3.26 | – |
| CC(C)[C@]12O[C@H]1[C@@H]1O[C@]13[C@]1(O[C@H]1C[C@H]1C4=C(CC[C@@]13C)C(=S)OC4)[C@H]2O | 1.46 | 1.34 | 3.66 | 6.32 | 4.83 | > 10 | 2.58 | 1.87 | 3.04 | 0.7 | 12.2 | 6.91 | 2.68 | – |
| CC(C)[C@]12O[C@H]1[C@@H]1O[C@@]13[C@@]1(C)CCC4=C(COC4=O)[C@@H]1C[C@@H]1O[C@@]13C2=O [TRIPTONIDE] | 0.02 | 0.13 | 0.09 | 0.02 | 0.11 | 0.46 | 0.05 | 0.05 | 0.05 | 0.1 | – | – | – | – |
